Data as given in patent US5300672A (priority 1992, dated 1994).
Converted amounts (≈) assume the structure as drawn. Where two headings read alike, the source gives them in different places.

Legend:
Phytophthora infestans = assay: whole plant or invertebrate; assay type: in vivo; conditions: for pest or weed control at 200 ppm / pest or weed control at 100 ppm: Phytophthora infestans, in Solanum lycopersicum, 96 h; for pest or weed control at 200 ppm: read-out: % Control TLB, application rate 200 ppm
Pythium ultimum = Pythium ultimum in vitro Fungitoxicity Assay in liquid culture; assay type: cell-based, Pythium ultimum (ATCC 26083); conditions: mycelial dry weight, 48 h at 25° C., shaking at 60 rpm
Experimental: Selected compounds of Examples 1-120 were subjected also to the following in vitro fungitoxicity assay against Pythium ultimum in a liquid culture, with the results as indicated in Table 6.
Pythium ultimum Fungitoxicity Assay
A dilution series of the test compound was prepared in dimethylsulfoxide, and 0.1 ml of each dilution was added to 19.9 ml of a liquid asparagine-sucrose medium (D. C. Erwin and K. Katznelson (1971), Can. J. Microbiol. 7, 15) in 9 cm diameter petri dishes to give the desired final concentrations of test compound. Plates were inoculated with mycelial plugs, 7 mm diameter, taken from the growing edge of 48 h old cultures of Pythium ultimum, (ATCC 26083), grown on potato dextrose agar. Two replicate plates were used for each treatment. The increase in mycelial dry weight was determined after growth for 48 h at 25° C. with shaking at 60 rpm. EC50 values were calculated from dose response curves.

Pseudomonas fluorescens [1] = assay: Alternate Minimum Inhibitory Concentrations Test (Table 4), Ps.fl; assay type: cell-based; conditions: for MIC: Pseudomonas fluorescens, read-out: MIC Ps.fl
Summary of the method: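 Broth microdilution MIC in TSB: compound (from acetone stock) serially diluted 1:1 from 250 ppm to 0.8 ppm, inoculated with diluted 24 h culture. After 3 days at 30 °C, the lowest concentration with no growth was recorded as MIC.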

Piricularia oryzae = assay: whole plant or invertebrate; assay type: in vivo; conditions: for pest or weed control at 200 ppm: read-out: % Control RB, application rate 200 ppm
[2] = test system: Erysiphe graminis (f. sp. tritici); assay: whole plant or invertebrate; assay type: in vivo; conditions: for pest or weed control at 200 ppm / pest or weed control at 100 ppm: Blumeria graminis, read-out: % Control WPM
[3] = test system: Puccinia recondita (f. sp. tritici Races PKB and PLD); assay: whole plant or invertebrate; assay type: in vivo
[4] = test system: Pellicularia filamentosa (f. sp. sasiki); assay: whole plant or invertebrate; assay type: in vivo; conditions: 120 h; read-out: % Control RSB
[5] = test system: Pseudoperonospora cubensis; assay: whole plant or invertebrate; assay type: in vivo
Aureobasidium pullulans = assay: Broth two-fold serial dilution MIC test (Table 3), A.p; assay type: cell-based; conditions: dilution series 500 to 4 ppm
Text: (§1) A minimum inhibitory concentration (MIC) value is obtained using a broth, two-fold serial dilution test performed as follows: A stock solution or dispersion of the test compound, typically at a concentration of 1%, is made in a 5:3:2 solvent solution of acetone, methanol, and water. A volume of the stock solution is dispensed into culture media to give an initial starting test concentration of 500 ppm compound.
(§2) When the test is ready to be done, each vessel in the dilution series, except the first vessel, contains an equal volume of compound free broth. The first vessel contains twice the volume of broth with the starting concentration of test compound. One half of the broth from the first vessel is transferred to the second vessel. After being mixed, one half the resulting volume is removed from the second vessel and transferred to the third vessel. The entire cycle is repeated sufficiently to give a series of concentrations amounting to 500, 250, 125, 63, 31, 16, 8, and 4 ppm, respectively.
(§3) Each vessel is then inoculated with a cell suspension of the appropriate test organism. Bacteria are grown in broth and fungi on agar slants for a time and at a temperature appropriate to the species being tested. At the end of the growth period, the broth is vortexed to disperse the cells. In the case of fungi, the spores are harvested by pipetting water onto the slant and dislodging the spores with a sterile loop. The cell/spore suspension is standardized by controlling incubation time, temperature, and the volume of the diluent. The suspension is then used to inoculate the vessels containing the broth compound. The vessels are then incubated at the appropriate temperature. After the incubation, the vessels are examined for growth/no growth. The minimum inhibitory concentration (MIC) is defined as the lowest concentration of compound that results in complete inhibition of growth of the test organism.
Aureobasidium pullulans (A.p)

Pseudomonas aerugenosa = assay: Broth two-fold serial dilution MIC test (Table 3), Ps.ae; assay type: cell-based; conditions: gram negative, dilution series 500 to 4 ppm
Text: as §1, §2, §3
Pseudomonas aerugenosa (Ps.ae), gram negative

Staphylococcus aureus = assay: Broth two-fold serial dilution MIC test (Table 3), S.a; assay type: cell-based; conditions: gram positive, dilution series 500 to 4 ppm
Text: as §1, §2, §3
Staphylococcus aureus (S.a), gram positive

Aspergillus niger = assay: Broth two-fold serial dilution MIC test (Table 3), A.n; assay type: cell-based; conditions: dilution series 500 to 4 ppm
Text: as §1, §2, §3

Pseudomonas fluorescens [6] = assay: Broth two-fold serial dilution MIC test (Table 3), Ps.fl; assay type: cell-based; conditions: gram negative, dilution series 500 to 4 ppm
Text: as §1, §2, §3
Pseudomonas fluorescens (Ps.fl), gram negative

Escherichia coli = assay: Broth two-fold serial dilution MIC test (Table 3), E.c; assay type: cell-based; conditions: gram negative, dilution series 500 to 4 ppm
Text: as §1, §2, §3
Escherichia coli (E.c), gram negative

[7] = test system: Puccinia graminis (f. sp. tritici Race 15B-2); assay: whole plant or invertebrate; assay type: in vivo
[8] = Globisporangium ultimum, read-out: EC 50
[9] = Table 4 alternate test, 250 ppm to 0.8 ppm in TSB, 72 hours, 30° C.
[10] = Puccinia recondita, 240 h, read-out: % Control WLR
[11] = Pseudoperonospora cubensis, in Cucumis sativus, 168 h, read-out: % Control CDM
[12] = read-out: % Control TLB, application rate 100 ppm

Row | SMILES | pest or weed control at 200 ppm (Phytophthora infestans) [%] | EC50 (Pythium ultimum; [8]) [µg/mL] | MIC (Pseudomonas fluorescens [1]; [9]) [µg/mL] | pest or weed control at 200 ppm (Piricularia oryzae; Pyricularia oryzae) [%] | pest or weed control at 200 ppm [2] [%] | pest or weed control at 200 ppm [3, 10] [%] | pest or weed control at 200 ppm [4] [%] | further results
1 | CCCCCCCCNC(=O)/C=C\SC(=O)C1CCc2ccccc2C1 (stereo not drawn) [Compound 74, N-octyl-cis-3-[(1,2,3,4-tetrahydronaphth-2-oyl)thio]acrylamide] | 0 | 5 (≈ 13.4 µM) | > 250 | 0 | 0 | 0 | 0 | 
2 | CCCCCCCCNC(=O)/C=C\SC(=O)c1nccc2ccccc12 [Compound 73, N-octyl-cis-3-[(1-isoquinoline)carbonylthio]acrylamide] | 0 | 8.4 (≈ 22.7 µM) | > 250 | 0 | 0 | 25 | 0 | 
3 | CCCCCCCCNC(=O)/C=C\SC(=O)N(c1ccccc1)c1ccccc1 [Compound 41, N-octyl-cis-3-(diphenylaminocarbonylthio)acrylamide] | 0 |  | > 250 | 0 | 0 |  |  | pest or weed control at 200 ppm [5, 11]: 0%; MIC (Aureobasidium pullulans): > 500 µg/mL; MIC (Pseudomonas aerugenosa): > 500 µg/mL; MIC (Staphylococcus aureus): ≥ 500 µg/mL; MIC (Aspergillus niger): > 500 µg/mL; pest or weed control at 25 ppm [3, 10]: 100%; pest or weed control at 100 ppm [4]: 0%; MIC (Pseudomonas fluorescens [6]): > 500 µg/mL; MIC (Escherichia coli): > 500 µg/mL
4 | CCCCCCCCNC(=O)/C=C\SCn1cncn1 [Compound 7, N-octyl-cis-3-[1-(1,2,4-triazoyl)methylthio]acrylamide] |  | 50 (≈ 169 µM) | > 250 |  |  |  |  | pest or weed control at 100 ppm (Phytophthora infestans; [12]): 0%; pest or weed control at 100 ppm [2]: 0%; pest or weed control at 100 ppm [3, 10]: 0%; pest or weed control at 6 ppm [4]: 50%
5 | CCCCCCCCNC(=O)/C=C\SC(=O)/C=C/c1ccc(C(F)(F)F)cc1 [Compound 70, N-octyl-cis-3-[(trans-3-(4-(trifluoromethyl)phenyl)propenoyl)thio]acrylamide] | 0 | 5 (≈ 12.1 µM) | > 250 | 50 | 0 | 0 | 0 | 
6 | O=C(/C=C\SC(=O)c1ccccc1)NCCN1CCOCC1 [Compound 116, N-[2-(4-morpholine)ethyl]-cis-3-(benzoylthio)acrylamide] | 0 | 10.3 (≈ 32.1 µM) | > 250 |  | 0 | 0 |  | pest or weed control at 200 ppm [5, 11]: 0%; pest or weed control at 12 ppm (Piricularia oryzae; Pyricularia oryzae, read-out: % Control RB, application rate 12 ppm): 50%
7 | CCCCCCCCNC(=O)/C=C\SC(=O)c1ccc(Br)cn1 [Compound 53, N-octyl-cis-3-[(5-bromo-2-pyridine)carbonylthio]acrylamide] |  | 10.2 (≈ 25.5 µM) | > 250 |  |  |  |  | pest or weed control at 100 ppm (Phytophthora infestans; [12]): 0%; pest or weed control at 100 ppm [2]: 0%; pest or weed control at 100 ppm [3, 10]: 0%; pest or weed control at 100 ppm [4]: 0%
8 | CCCCCCCCNC(=O)/C=C\SC[C@H](N)C(=O)O [Compound 47, N-octyl-cis-3-[(2-amino-2-carboxyethane)thio]acrylamide] |  |  | > 250 |  |  |  |  | pest or weed control at 100 ppm (Phytophthora infestans; read-out: % Control TLB): 90%; pest or weed control at 12 ppm [5, 11]: 70%; pest or weed control at 50 ppm ([7]; Puccinia graminis, 336 h, read-out: % Control WSR): 90%; MIC (Aureobasidium pullulans): > 500 µg/mL; pest or weed control at 50 ppm (Piricularia oryzae; Pyricularia oryzae, read-out: % Control RB, application rate 50 ppm): 0%; MIC (Pseudomonas aerugenosa): > 500 µg/mL; MIC (Staphylococcus aureus): > 500 µg/mL; MIC (Aspergillus niger): > 500 µg/mL; MIC (Pseudomonas fluorescens [6]): > 500 µg/mL; MIC (Escherichia coli): > 500 µg/mL
9 | CCCCCCCCNC(=O)/C=C\SC(=O)CC(C)c1ccccc1 (stereo not drawn) [Compound 78, N-octyl-cis-3-[(3-phenylbutanoyl)thio]acrylamide] | 0 | 23.9 (≈ 66.1 µM) | > 250 | 0 | 0 | 0 | 0 | 
10 | CCCCCCCCNC(=O)/C=C\SC(=O)c1ccc(N=C=S)cc1 [Compound 48, N-octyl-cis-3-[(4-isothiocyanobenzoyl)thio]acrylamide] |  | 8.2 (≈ 21.8 µM) | > 250 |  |  |  |  | pest or weed control at 100 ppm (Phytophthora infestans; [12]): 0%
11 | CCCCCCCCNC(=O)/C=C\SC(=O)C1=CCCCC1 [Compound 9, N-octyl-cis-3-[(1-cyclohexene)carbonylthio]acrylamide] |  |  |  |  |  |  |  | pest or weed control at 100 ppm (Phytophthora infestans; read-out: % Control TLB): 90%; MIC (Aureobasidium pullulans): < 4 µg/mL; pest or weed control at 100 ppm (Piricularia oryzae; Pyricularia oryzae, read-out: % Control RB, application rate 100 ppm): 90%; MIC (Pseudomonas aerugenosa): > 500 µg/mL; MIC (Staphylococcus aureus): > 500 µg/mL; pest or weed control at 100 ppm [2]: 0%; MIC (Aspergillus niger): > 500 µg/mL; pest or weed control at 100 ppm [3, 10]: 0%; pest or weed control at 100 ppm [4]: 0%; MIC (Pseudomonas fluorescens [6]): > 500 µg/mL; MIC (Escherichia coli): > 500 µg/mL
12 | CCCCCCCCNC(=O)/C=C\SCC(O)c1ccco1 (stereo not shown) [Compound 42] |  |  |  |  |  |  |  | % Control TLB (Phytophthora infestans; application rate 200 ppm): 0 % Control; % Control CDM ([5]; in vivo): 50 % Control; % Control WSR ([7]; application rate 200 ppm): 50 % Control; EC50 (Pythium ultimum): 9 ppm; MIC Ps.fl (Pseudomonas fluorescens [1]; [9]): > 250 Ppm; % Control RB (Piricularia oryzae; in vivo): 90 % Control; % Control WPM ([2]; in vivo): 0 % Control; % Control WLR ([3]; in vivo): 0 % Control
13 | CCCCCCCCNC(=O)/C=C\SC(=O)c1cccn1C [Compound 61, N-octyl-cis-3-[(1-methyl-2-pyrrole)carbonylthio]acrylamide] | 0 | 59.5 (≈ 185 µM) | > 250 | 0 | 0 | 0 | 0 | 
14 | CCCCCCCCNC(=O)/C=C\SC(=O)c1ccc(CCCC)cc1 [Compound 115, N-octyl-cis-3-[(4-butylbenzoyl)thio]acrylamide] | 0 |  |  |  |  |  |  | MIC (Aureobasidium pullulans): ≥ 250 µg/mL; MIC (Pseudomonas fluorescens [1]; 72 h): > 250 µg/mL; MIC (Pseudomonas aerugenosa): > 500 µg/mL; MIC (Staphylococcus aureus): > 500 µg/mL; MIC (Aspergillus niger): > 500 µg/mL; MIC (Pseudomonas fluorescens [6]): > 500 µg/mL; MIC (Escherichia coli): > 500 µg/mL
15 | CCCCCCCCNC(=O)/C=C\SC(=O)c1ccc2ccccc2n1 [Compound 76, N-octyl-cis-3-[(2-quinoline)carbonylthio]acrylamide] | 0 | 13.2 (≈ 35.6 µM) | > 250 | 0 | 0 | 0 | 0 | 
